Reference: ChEMBL document CHEMBL5291721, “A preclinical secondary pharmacology resource illuminates target-adverse drug reaction associations of marketed drugs” (Nat Commun, 2023)

How the values were obtained:
Vasopressin V1a receptor = Vasopressin V1a receptor (Homo sapiens, UniProt P37288)
B2 bradykinin receptor = target: T1, B2 bradykinin receptor (Homo sapiens, UniProt P30411)
T1 sequence (P30411 whole entry): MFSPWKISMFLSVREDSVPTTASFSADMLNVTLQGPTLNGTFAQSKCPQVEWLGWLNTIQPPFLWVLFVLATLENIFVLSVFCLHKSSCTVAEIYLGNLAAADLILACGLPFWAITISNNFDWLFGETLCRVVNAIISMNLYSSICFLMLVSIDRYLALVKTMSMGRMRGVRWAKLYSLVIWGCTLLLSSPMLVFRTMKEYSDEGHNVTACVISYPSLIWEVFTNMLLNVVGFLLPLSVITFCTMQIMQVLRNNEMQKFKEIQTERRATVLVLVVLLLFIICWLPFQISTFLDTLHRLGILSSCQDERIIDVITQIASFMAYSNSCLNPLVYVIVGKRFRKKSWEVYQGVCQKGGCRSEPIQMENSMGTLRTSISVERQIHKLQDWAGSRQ

[1] = target: T2, Muscarinic acetylcholine receptor M1 (Homo sapiens, UniProt P11229); format: functional
T2 sequence (P11229 whole entry): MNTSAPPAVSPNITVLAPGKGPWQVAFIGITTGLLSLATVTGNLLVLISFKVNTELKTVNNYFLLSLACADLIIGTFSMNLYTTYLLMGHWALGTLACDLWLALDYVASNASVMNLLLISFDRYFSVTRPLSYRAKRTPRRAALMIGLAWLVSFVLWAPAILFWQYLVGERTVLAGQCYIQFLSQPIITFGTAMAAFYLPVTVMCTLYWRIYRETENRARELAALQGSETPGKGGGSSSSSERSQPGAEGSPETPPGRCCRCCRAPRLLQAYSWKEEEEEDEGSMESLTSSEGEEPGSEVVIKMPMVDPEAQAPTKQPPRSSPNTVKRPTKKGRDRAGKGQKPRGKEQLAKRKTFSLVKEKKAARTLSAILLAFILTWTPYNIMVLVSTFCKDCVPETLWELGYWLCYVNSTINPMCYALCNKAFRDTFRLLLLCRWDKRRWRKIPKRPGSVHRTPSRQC

[2] = target: T3, 5-hydroxytryptamine receptor 1A (Homo sapiens, UniProt P08908); format: functional, cell-based
T3 sequence (P08908 whole entry): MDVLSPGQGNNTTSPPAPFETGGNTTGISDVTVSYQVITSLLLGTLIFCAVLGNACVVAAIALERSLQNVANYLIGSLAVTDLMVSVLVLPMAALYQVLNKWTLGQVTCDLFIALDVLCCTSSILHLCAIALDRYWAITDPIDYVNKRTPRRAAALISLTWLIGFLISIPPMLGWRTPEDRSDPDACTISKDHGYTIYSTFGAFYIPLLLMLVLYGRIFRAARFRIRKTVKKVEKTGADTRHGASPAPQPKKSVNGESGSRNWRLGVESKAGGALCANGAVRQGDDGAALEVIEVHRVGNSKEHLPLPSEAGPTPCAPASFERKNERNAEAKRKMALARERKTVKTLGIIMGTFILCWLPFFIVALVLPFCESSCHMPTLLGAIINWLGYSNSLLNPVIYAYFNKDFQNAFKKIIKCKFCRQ

[3] = target: 5-hydroxytryptamine receptor 2A (Homo sapiens, UniProt P28223); format: functional, cell-based
Melanocortin receptor 3 = Melanocortin receptor 3 (Homo sapiens, UniProt P41968)
Progesterone receptor = target: T4, Progesterone receptor (Homo sapiens, UniProt P06401); format: functional
T4 sequence (P06401 whole entry): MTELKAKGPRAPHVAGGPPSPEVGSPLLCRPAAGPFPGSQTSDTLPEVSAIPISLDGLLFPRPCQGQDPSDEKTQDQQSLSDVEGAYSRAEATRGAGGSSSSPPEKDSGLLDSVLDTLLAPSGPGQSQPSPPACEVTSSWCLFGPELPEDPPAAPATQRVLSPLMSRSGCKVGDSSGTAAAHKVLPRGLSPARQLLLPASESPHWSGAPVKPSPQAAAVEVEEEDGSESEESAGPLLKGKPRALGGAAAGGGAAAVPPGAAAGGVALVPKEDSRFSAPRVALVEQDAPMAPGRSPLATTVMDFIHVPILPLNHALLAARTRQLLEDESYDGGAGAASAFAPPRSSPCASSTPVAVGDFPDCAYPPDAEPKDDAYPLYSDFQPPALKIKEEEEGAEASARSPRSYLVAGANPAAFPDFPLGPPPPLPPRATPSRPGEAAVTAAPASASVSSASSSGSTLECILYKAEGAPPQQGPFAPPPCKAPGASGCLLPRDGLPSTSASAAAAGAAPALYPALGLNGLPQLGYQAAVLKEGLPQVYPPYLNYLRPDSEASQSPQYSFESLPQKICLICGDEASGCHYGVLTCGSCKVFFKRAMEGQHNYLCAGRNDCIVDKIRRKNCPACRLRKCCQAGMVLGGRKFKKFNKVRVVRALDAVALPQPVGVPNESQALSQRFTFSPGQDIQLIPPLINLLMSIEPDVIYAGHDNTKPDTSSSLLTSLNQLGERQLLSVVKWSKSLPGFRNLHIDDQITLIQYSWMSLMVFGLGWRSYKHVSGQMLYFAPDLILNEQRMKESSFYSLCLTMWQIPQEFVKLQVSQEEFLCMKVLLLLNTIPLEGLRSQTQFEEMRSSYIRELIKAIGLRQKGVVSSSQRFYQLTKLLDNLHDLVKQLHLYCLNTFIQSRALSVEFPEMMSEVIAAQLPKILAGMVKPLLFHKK

[4] = target: Sodium-dependent serotonin transporter (Homo sapiens, UniProt P31645)
Histamine H3 receptor = Histamine H3 receptor (Homo sapiens, UniProt Q9Y5N1)
Further: assay procedure not described here.

Vasopressin V1a receptor, sequence (P37288 whole entry): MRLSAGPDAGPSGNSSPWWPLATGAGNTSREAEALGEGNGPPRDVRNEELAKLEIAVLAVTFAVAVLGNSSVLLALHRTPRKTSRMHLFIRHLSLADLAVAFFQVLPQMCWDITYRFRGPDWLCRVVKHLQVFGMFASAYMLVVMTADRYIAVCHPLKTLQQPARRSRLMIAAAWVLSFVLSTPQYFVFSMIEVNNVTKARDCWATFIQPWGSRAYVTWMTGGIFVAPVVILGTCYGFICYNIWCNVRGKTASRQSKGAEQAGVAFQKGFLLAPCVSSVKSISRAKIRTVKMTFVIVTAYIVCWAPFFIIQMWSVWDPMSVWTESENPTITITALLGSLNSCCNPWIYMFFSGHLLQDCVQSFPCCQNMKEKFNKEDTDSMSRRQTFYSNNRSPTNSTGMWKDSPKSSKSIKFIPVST
Sodium-dependent serotonin transporter, sequence (P31645 whole entry): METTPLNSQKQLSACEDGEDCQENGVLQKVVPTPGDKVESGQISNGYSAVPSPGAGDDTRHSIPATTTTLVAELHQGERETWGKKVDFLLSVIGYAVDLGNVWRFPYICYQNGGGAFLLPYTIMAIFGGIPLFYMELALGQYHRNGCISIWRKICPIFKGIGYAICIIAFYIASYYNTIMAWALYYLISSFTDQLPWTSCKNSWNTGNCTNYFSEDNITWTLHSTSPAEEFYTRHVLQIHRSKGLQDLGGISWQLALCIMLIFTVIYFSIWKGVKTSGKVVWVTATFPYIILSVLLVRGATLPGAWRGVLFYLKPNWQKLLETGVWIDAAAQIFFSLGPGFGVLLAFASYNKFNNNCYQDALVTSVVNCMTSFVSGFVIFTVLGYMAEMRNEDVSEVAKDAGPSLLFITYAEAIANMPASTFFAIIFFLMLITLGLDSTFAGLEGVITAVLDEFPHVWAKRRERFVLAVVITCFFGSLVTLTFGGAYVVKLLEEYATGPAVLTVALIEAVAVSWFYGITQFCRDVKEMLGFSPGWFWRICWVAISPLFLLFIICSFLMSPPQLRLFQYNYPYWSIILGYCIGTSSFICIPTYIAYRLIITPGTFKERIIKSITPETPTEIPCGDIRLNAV
Melanocortin receptor 3, sequence (P41968 whole entry): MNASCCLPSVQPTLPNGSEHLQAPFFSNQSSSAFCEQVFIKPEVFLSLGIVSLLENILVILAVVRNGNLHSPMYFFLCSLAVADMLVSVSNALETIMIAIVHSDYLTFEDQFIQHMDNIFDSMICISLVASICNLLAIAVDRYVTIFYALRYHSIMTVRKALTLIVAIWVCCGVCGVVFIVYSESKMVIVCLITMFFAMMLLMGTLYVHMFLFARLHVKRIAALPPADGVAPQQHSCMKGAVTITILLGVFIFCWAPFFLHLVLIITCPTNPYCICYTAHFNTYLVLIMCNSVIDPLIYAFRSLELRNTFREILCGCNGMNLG
Histamine H3 receptor, sequence (Q9Y5N1 whole entry): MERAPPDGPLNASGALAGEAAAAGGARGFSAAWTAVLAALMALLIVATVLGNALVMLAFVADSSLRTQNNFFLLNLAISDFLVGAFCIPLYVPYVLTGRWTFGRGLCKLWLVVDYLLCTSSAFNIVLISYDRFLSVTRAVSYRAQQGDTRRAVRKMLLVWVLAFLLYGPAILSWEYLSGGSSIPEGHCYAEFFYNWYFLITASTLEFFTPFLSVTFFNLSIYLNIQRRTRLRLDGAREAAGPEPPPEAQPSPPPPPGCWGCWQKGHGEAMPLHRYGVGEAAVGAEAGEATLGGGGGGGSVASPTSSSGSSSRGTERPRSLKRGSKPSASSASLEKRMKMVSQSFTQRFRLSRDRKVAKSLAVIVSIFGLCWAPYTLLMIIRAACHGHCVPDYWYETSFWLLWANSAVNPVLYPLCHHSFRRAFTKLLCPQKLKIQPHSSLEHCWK
5-hydroxytryptamine receptor 2A, sequence (P28223 whole entry): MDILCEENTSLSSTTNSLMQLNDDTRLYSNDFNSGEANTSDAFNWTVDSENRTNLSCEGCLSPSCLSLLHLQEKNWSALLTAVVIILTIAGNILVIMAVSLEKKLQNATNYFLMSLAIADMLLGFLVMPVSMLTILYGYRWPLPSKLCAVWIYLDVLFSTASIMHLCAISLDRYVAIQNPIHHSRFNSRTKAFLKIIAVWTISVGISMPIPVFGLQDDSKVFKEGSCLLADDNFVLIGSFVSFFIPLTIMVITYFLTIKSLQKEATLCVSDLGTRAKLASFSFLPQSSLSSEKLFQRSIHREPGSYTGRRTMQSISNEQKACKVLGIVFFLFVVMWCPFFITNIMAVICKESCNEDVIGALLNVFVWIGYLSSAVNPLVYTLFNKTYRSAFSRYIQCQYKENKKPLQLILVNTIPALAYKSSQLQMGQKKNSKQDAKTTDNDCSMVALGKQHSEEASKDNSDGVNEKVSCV

| Structure (SMILES) | AC50 (Vasopressin V1a receptor) [µM] | AC50 (B2 bradykinin receptor) [µM] | AC50 [1] [µM] | AC50 [2] [µM] | AC50 [3] [µM] | AC50 (Melanocortin receptor 3) [µM] | AC50 (Progesterone receptor) [µM] | AC50 [4] [µM] | AC50 (Histamine H3 receptor) [µM] |
| --- | --- | --- | --- | --- | --- | --- | --- | --- | --- |
| CN1CCN(C(=O)OC2c3nccnc3C(=O)N2c2ccc(Cl)cn2)CC1 (stereo not given) [ZOPICLONE] | > 30 | > 30 | > 30 | > 10 | > 30 | > 30 | > 30 | > 30 | > 30 |
| CC(C)C(=O)OCC(=O)[C@@]12O[C@H](C3CCCCC3)O[C@@H]1C[C@H]1[C@@H]3CCC4=CC(=O)C=C[C@]4(C)[C@H]3[C@@H](O)C[C@@]12C [CICLESONIDE] | > 10 | > 10 | > 10 | > 10 | > 10 | > 10 | 7.1 | > 10 |  |
| CC(=O)OCC(=O)[C@@]12OC3(CCCC3)O[C@@H]1C[C@H]1[C@@H]3CCC4=CC(=O)C=C[C@]4(C)[C@@]3(F)[C@@H](O)C[C@@]12C [AMCINONIDE] | > 10 | > 10 | > 10 | > 10 | > 10 | > 10 | 0.212 | > 10 |  |
| C#CC1(OC(N)=O)CCCCC1 [ETHINAMATE] | > 10 | > 10 | > 10 | > 10 | > 10 | > 10 | > 10 | > 10 | > 10 |
| CCCCOc1cc(C(=O)NCCN(CC)CC)c2ccccc2n1 [DIBUCAINE] | > 30 | > 30 | > 10 | > 10 | > 10 | > 30 | > 10 | > 10 |  |
| CC1=CC(=O)c2ccccc2C1=O [MENADIONE] | > 10 | > 10 | > 30 | > 10 | > 10 | > 10 | > 30 | > 10 |  |
| O=C1CN=C(c2ccccc2)c2cc(Cl)ccc2N1CC(F)(F)F [HALAZEPAM] | > 30 | > 30 | > 30 | > 30 | > 30 | > 30 | > 30 | > 30 | > 30 |
| O=C(CCCCC(=O)Nc1c(I)cc(I)c(C(=O)O)c1I)Nc1c(I)cc(I)c(C(=O)O)c1I [IODIPAMIDE] | > 10 | > 10 | > 10 | > 10 | > 10 | > 10 | > 10 | > 10 |  |
| CCC(C(=O)O)c1ccc(CC(C)C)cc1 (stereo not given) [BUTIBUFEN] | > 30 | > 30 | > 30 | > 30 | > 30 | > 30 | > 30 | > 30 | > 30 |
| O=C(C[S+]([O-])C(c1ccccc1)c1ccccc1)NO (stereo not given) | > 30 | > 30 | > 30 | > 30 | > 30 | > 30 | > 30 | > 30 | > 30 |
